# Reference: ChEMBL document CHEMBL1131920, “Periodinates: a new class of protein tyrosine phosphatase inhibitors” (Bioorg Med Chem Lett, 1999)
# Legend:
# Rattus norvegicus [1] = species on record: Rattus norvegicus; test: Inhibition of protein tyrosine phosphatase (PTP) activity in rat liver endosome insulin receptor (IR) dephosphorylation assay at 1 mM
# [2] = target: T1, Tyrosine-protein phosphatase non-receptor type 1 (Homo sapiens, UniProt P18031); test: Inhibition of protein tyrosine phosphatase 1B (PTP1B) activity in 3,6-fluorescein diphosphate (FDP) assay
# T1 sequence (P18031 whole entry): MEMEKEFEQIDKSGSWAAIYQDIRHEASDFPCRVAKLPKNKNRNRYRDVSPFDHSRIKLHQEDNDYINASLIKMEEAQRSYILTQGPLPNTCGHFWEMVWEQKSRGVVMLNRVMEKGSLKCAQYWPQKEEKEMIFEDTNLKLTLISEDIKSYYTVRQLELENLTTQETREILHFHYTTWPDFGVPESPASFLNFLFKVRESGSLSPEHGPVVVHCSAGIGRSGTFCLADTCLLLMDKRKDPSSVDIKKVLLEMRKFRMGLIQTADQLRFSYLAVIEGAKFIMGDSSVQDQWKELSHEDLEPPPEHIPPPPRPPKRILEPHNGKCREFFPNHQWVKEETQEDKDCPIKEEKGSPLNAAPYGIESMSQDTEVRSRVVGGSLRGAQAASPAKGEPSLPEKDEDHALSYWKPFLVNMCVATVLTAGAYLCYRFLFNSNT
# Rattus norvegicus [3] = species on record: Rattus norvegicus; test: Inhibition of protein tyrosine phosphatase (PTP) activity in rat liver endosome insulin receptor (IR) dephosphorylation assay at 0.1 mM
# [4] = target: T1, Tyrosine-protein phosphatase non-receptor type 1; test: Inhibition of protein tyrosine phosphatase 1B (PTP1B) activity in 3,6-fluorescein diphosphate (FDP) assay; NI= no inhibition
Structure (SMILES),inhibition (Rattus norvegicus [1]),IC50 [2],inhibition (Rattus norvegicus [3]),IC50 [4]
Cc1ccc(I(=O)=O)cc1,47%,1510 µM,6%,–
O=C1OI(=O)(O)c2ccccc21 (stereo not given),98%,1160 µM,36%,–
CC(=O)OI1(OC(C)=O)(OC(C)=O)OC(=O)c2ccccc21,69%,130 µM,50%,–
O=I(=O)c1ccc(I(=O)=O)cc1,30%,1410 µM,–,–
CC(C)(C)OOI1OC(=O)c2ccccc21,78%,230 µM,48%,–
OO,65%,–,0%,–
O=[N+]([O-])c1cccc(I(=O)=O)c1,86%,1140 µM,27%,–
O=[N+]([O-])c1ccc(I(=O)=O)cc1,90%,130 µM,30%,–
O=I(=O)c1c[nH]cn1,43%,1050 µM,22%,–
O=I(=O)c1ccccc1,88%,2650 µM,0%,–
O=P1(O)Oc2ccccc2I(=O)(O)O1 (stereo not given),–,350 µM,17%,–
O=C(O)c1cccc(I(=O)=O)c1,67%,890 µM,32%,–
O=C1OI(O)c2ccccc21,10%,–,–,Not Active
